From article PMC5048153 (Scientific Reports, 2016)

Key:
[1] = PAMPA-BBB literature value ref 38; cited from earlier work
H9C2 cells = assay: Cytotoxicity on H9C2 cells (MTT); type: cell-based; conditions: Rattus norvegicus, 48 h
Experimental: Human normal hepatic L02 cells, human embryonic kidney cell line 293 cells (HEK293) and Rattus myoblast cell line H9C2 cells were respectively seeded in 96-well plates at a density of 4 × 10^3 cells per well and cultured in the 1640 or DMEM medium, with the supplement of 10% fetal bovine serum, penicillin (100 unit/ml), streptomycin (100 μg/ml) in a humidified incubator with 5% CO2 for 24 h. After adherence, L02, HEK293 and H9C2 cells were exposed to different compounds for another 48 h. The cytotoxicities of the compounds were evaluated by MTT method.

[2] = test system: corticosterone injured PC12 cells; assay: Real-time PCR BDNF mRNA level; type: cell-based, rat; conditions: 200 µM corticosterone and 5 µM drug
[3] = test system: corticosterone-injured PC12 cells; assay: Intracellular calcium ion concentration analysis (Fura-2 AM); type: cell-based, rat; conditions: 200 µM corticosterone and 5 µM drug
Experimental: The detailed procedures were performed according to the reported literatures. In brief, calcium ion concentration was measured by Fura-2 AM (Thermo Scientific). PC12 cells were treated with compound 6a-1 for 48 hours. Then cells were detached with 0.25% trypsin and centrifuged at 1000 r/min for 5 minutes. The supernatant was removed and the cells were stained with Fura-2 AM according to the manufacturer’s instructions. Fluorescence intensity of labeled cells was photographed for 25 random sights each group using Thermo Scientific Array Scan Infinity.

SD rats [4] = assay: Open field locomotor activity; type: in vivo, rat; conditions: ig. 32 mg/kg/day, days 2–15, vs untreated rats
Experimental: The detailed procedures were performed according to our previous studies. In brief, each SD rat was placed at the center of the open field (50 × 50 cm^2 chamber, 50-cm-high walls, with a 25 cm^2 area in the middle of floor defined as the central square) for 6 min in a quiet room. The animals were gently placed in the center of the platform and were allowed to explore the surroundings. A camera was installed above the center of the field. Immediately after a rat was placed at the center in the open field, the movements and position of the animals were recorded and registered automatically by computerized system. Next test was performed after cleaning the chamber. The traveled tracks of rats were recorded for 6 minutes and the videos of the last 4 minutes were analyzed also by Xeye Animal behavior analysis system.

SD rats [5] = assay: Forced swim test; type: in vivo, rat; conditions: ig. 32 mg/kg/day, days 2–15
Experimental: The detailed procedures were performed according to our previous studies. Briefly, each SD rat was placed in a vertical Plexiglas cylinder (height 50 cm; diameter 20 cm) containing 18 cm height of water at 25 ± 2 °C and was forced to swim individually for 15 min on1st day. From 2nd day to 15th day, the rats were intragastrically administered compound 6a-1 or control drugs at dosage of 32 mg/kg/day. On the 2nd day and 15th day, 30 minutes after drug treatment, each rat was placed again into water and forced to swim for 6 min. The rat behavior was recorded by a video camera placed directly facing cylinders. The duration of immobility during the last 4 minutes was analyzed by Xeye Animal behavior analysis system (Xeye Aba V3.2). The rat was considered as immobile when its moving speed was less than 20 mm/s. The dosage of is 32 mg/kg every day. The water in the cylinder was changed each trial. After each exposure, animals were partially dried with a towel and returned to their home cages. All tests were performed in a quiet room.

O=C1Nc2ccc(Cl)cc2C(c2ccccc2)=NC1O (centres unmarked) [Oxazepam]
Pe, Lit. [1]: 10 *10^−6 cm/s

COc1cccc2c1C(=O)c1c(O)c3c(c(O)c1C2=O)C[C@@](O)(C(=O)CO)C[C@@H]3O[C@H]1C[C@H](N)[C@H](O)[C@H](C)O1 [Adriamycin]
IC50 (H9C2 cells): 160 ± 20 nM

Cn1c(=O)c2[nH]cnc2n(C)c1=O [Theophylline]
Pe, Lit. [1]: 0.12 *10^−6 cm/s

CNCCC(Oc1ccc(C(F)(F)F)cc1)c1ccccc1 (centres unmarked) [Fluoxetine]
BDNF mRNA level increase compared with corticosterone-injured group [2]: 32.1%
fluorescence intensity of free intracellular calcium ion [3]: weaker fluorescence intensity than corticosterone-injured PC12 cells
improved travelled distance (SD rats [4]): 69.8%
mean immobility time reduced compared to the model group (SD rats [5]): 50.7%

CN1C(C(=O)Nc2ccccn2)=C(O)c2ccccc2S1(=O)=O [Piroxicam]
Pe, Lit. [1]: 2.5 *10^−6 cm/s
